Test results: patent US8802721B2, “Thiophene compounds for inflammation and immune-related uses” (Synta Pharmaceuticals Corp., priority 2005, dated 2014)

tested on: IL-2 production; test: Inhibition of IL-2 production in PHA-activated Jurkat cells (ELISA); assay type: cell-based; conditions: Homo sapiens, PHA 2.5 μg/mL, 20 hours
Experimental: Jurkat cells were placed in a 96 well plate (0.5 million cells per well in 1% FBS medium) then a test compound of this invention was added at different concentrations. After 10 minutes, the cells were activated with PHA (final concentration 2.5 μg/mL) and incubated for 20 hours at 37° C. under CO2. The final volume was 200 μL. Following incubation, the cells were centrifuged and the supernatants collected and stored at −70° C. prior to assaying for IL-2 production. A commercial ELISA kit (IL-2 Eli-pair, Diaclone Research, Besancon, France) was used to detect production of IL-2, from which dose response curves were obtained.

IC50 [nM] | SMILES
14 | Cc1cnccc1NC(=O)c1ccc(-c2cc(C(F)(F)F)ccc2Cl)s1 [Compound 2, 5-(2-Chloro-5-trifluoromethyl-phenyl)-thiophene-2-carboxylic acid (3-methyl-pyridin-4-yl)-amide]
94.8 | Cc1ccc(-c2ncco2)cc1-c1ccc(NC(=O)c2c(F)cccc2F)s1 [Compound 119, 2,6-Difluoro-N-[5-(2-methyl-5-oxazol-2-yl-phenyl)-thiophen-2-yl]-benzamide]
87 | COC(=O)c1cccc(-c2sc(NC(=O)c3c(F)cccc3F)cc2C)c1 [Compound 120, 3-[5-(2,6-Difluoro-benzoylamino)-3-methyl-thiophen-2-yl]-benzoic acid methyl ester]
3 | O=C(Nc1c(F)cccc1F)c1ccc(-c2cc(C(F)(F)F)ccc2Cl)s1 [Compound 1, 5-(2-Chloro-5-trifluoromethyl-phenyl)-thiophene-2-carboxylic acid (2,6-difluoro-phenyl)-amide]
6.4 | COC(=O)c1ccc(C)c(-c2ccc(C(=O)Nc3c(F)cccc3F)s2)c1 [Compound 3, 3-[5-(2,6-Difluoro-phenylcarbamoyl)-thiophen-2-yl]-4-methyl-benzoic acid methyl ester]
164 | O=C(Nc1ccc(-c2cccc(-c3cnco3)c2)s1)c1c(F)cccc1F [Compound 121, 2,6-Difluoro-N-[5-(3-oxazol-5-yl-phenyl)-thiophen-2-yl]-benzamide]
16.5 | O=C(Nc1ccc(-c2cccc(C(F)(F)F)c2)s1)c1c(F)cccc1F [Compound 117, 2,6-Difluoro-N-[5-(3-trifluoromethyl-phenyl)-thiophen-2-yl]-benzamide]
104 | COC(=O)c1ccc(C)c(-c2ccc(NC(=O)c3c(F)cccc3F)s2)c1 [Compound 118, 3-[5-(2,6-Difluoro-benzoylamino)-thiophen-2-yl]-4-methyl-benzoic acid methyl ester]
58.5 | COC(=O)c1ccc(C)c(-c2ccc(C(=O)Nc3ccncc3C)s2)c1 [Compound 4, 4-Methyl-3-[5-(3-methyl-pyridin-4-ylcarbamoyl)-thiophen-2-yl]-benzoic acid methyl ester]

molecular target: ICRAC current in RBL cells (CRAC ion channel) (Rattus norvegicus, UniProt Q5M848); test: Patch clamp inhibition of ICRAC current in RBL cells; assay type: cell-based; conditions: whole-cell patch clamp, inward current at −80 mV, read-out: IC50 (concentration which inhibits 50% of the ICRAC current)
Sequence (Q5M848 whole entry, looked up, the tested form may be a part): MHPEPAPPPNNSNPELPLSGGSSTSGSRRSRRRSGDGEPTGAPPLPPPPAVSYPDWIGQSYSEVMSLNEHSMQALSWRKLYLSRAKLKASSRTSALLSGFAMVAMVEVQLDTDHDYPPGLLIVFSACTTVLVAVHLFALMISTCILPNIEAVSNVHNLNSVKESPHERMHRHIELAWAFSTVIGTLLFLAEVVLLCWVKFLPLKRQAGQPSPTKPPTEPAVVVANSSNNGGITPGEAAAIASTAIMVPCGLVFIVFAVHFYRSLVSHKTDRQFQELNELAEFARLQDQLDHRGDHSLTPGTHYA
Experimental: In general, a whole cell patch clamp method is used to examine the effects of a compound of the invention on a channel that mediates Icrac. In such experiments, a baseline measurement is established for a patched cell. Then a compound to be tested is perfused (or puffed) to cells in the external solution and the effect of the compound on Icrac is measured. A compound that modulates Icrac (e.g., inhibits) is a compound that is useful in the invention for modulating CRAC ion channel activity.
Rat basophilic leukemia cells (RBL-2H3) were grown in DMEM media supplemented with 10% fetal bovine serum in an atmosphere of 95% air/5% CO2. Cells were seeded on glass coverslips 1-3 days before use.
Membrane currents of individual cells were recorded using the whole-cell configuration of the patch clamp technique with an EPC10 (HEKA Electronik, Lambrecht, Germany). Electrodes (2-5 MΩ in resistance) were fashioned from borosilicate glass capillary tubes (Sutter Instruments, Novato, Ca). […]
ICRAC currents were monitored every 2 seconds using a 50 msec protocol, where the voltage was ramped from −100 mV to +100 mV. […]
The ICRAC current level was determined by measuring the inward current amplitude at −80 mV of the voltage ramp in an off-line analysis using MATLAB. The ICRAC current inhibition for each concentration was calculated using peak amplitude in the beginning of the experiment from the same cell. […]

SMILES | IC50 [nM]
COc1ccc(CCCOC(Cn2ccnc2)c2ccc(OC)cc2)cc1 (stereo not shown) [SKF96365] | 4000
